Measurements from ChEMBL document CHEMBL5126572, “Synthesis and biological evaluation of new series of benzamide derivatives containing urea moiety as sEH inhibitors” (Bioorg Med Chem Lett, 2022).
Activity calls are given as the source filed them.

Legend:
[1] = biological target: T1, Bifunctional epoxide hydrolase 2 (Homo sapiens) (UniProt P34913); experiment: Inhibition of sEH (unknown origin) at 100 nM relative to control
T1 sequence (whole entry): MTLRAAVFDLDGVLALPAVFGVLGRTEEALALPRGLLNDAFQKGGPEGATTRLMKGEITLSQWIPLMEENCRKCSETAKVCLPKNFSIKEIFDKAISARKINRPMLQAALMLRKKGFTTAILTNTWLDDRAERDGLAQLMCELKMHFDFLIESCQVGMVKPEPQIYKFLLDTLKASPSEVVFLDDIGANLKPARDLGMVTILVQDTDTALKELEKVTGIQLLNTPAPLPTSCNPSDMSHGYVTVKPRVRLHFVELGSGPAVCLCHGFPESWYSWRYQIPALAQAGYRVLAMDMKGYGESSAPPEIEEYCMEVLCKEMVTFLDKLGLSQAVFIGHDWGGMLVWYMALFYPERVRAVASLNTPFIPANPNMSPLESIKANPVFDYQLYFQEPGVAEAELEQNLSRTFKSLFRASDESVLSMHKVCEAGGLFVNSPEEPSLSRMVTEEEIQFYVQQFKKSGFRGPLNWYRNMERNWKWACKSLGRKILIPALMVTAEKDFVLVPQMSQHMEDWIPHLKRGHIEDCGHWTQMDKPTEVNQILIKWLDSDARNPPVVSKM

[2] = Microsomal stability in human liver microsomes assessed as half life; format: ADME, Microsome
[3] = Microsomal stability in dog liver microsomes assessed as half life; format: ADME, Canis lupus familiaris, Microsome
[4] = Microsomal stability in rat liver microsomes assessed as half life; format: ADME, Microsome
[5] = Microsomal stability in mouse liver microsomes assessed as half life; format: ADME, Microsome
Rattus norvegicus = experiment: Antinociceptive activity in carrageenan-induced inflammatory pain Sprague-Dawley rat model assessed as increase in mechanical withdrawal threshold at 50 mg/kg, ip by von-frey filament assay; format: functional, organism-based

Compound: Cc1cc(C(=O)Nc2ccc(Cl)cc2)ccc1N(CC(=O)N1CCOCC1)C(=O)Nc1ccc(Cl)cc1
- inhibition [1]: 95.7%
- half-life [2]: 31.9 min
- half-life [3]: 37 min
- half-life [4]: 45.9 min
- half-life [5]: 28.3 min

Compound: Cc1ccc(-c2cc(C(F)(F)F)nn2-c2ccc(S(N)(=O)=O)cc2)cc1
- Activity (Rattus norvegicus): Active

Compound: Cc1cc(C(=O)Nc2ccc(Cl)cc2)ccc1N(CC(C)C)C(=O)Nc1ccc(Cl)cc1
- inhibition [1]: 69.4%

Compound: Cc1cc(C(=O)Nc2cnn(C)c2)ccc1N(CCN1CCOCC1)C(=O)Nc1ccc(Cl)cc1
- inhibition [1]: 87.7%

Compound: Cc1cc(C(=O)Nc2ccc(Cl)cc2)ccc1N(CCN(C)C)C(=O)Nc1ccc(Cl)cc1
- inhibition [1]: 67.7%

Compound: Cc1cc(C(=O)Nc2ccc(Cl)cc2)ccc1N(CCO)C(=O)Nc1ccc(Cl)cc1
- inhibition [1]: 74.3%

Compound: O=C(NC12CC3CC(CC(C3)C1)C2)N[C@H]1CC[C@H](Oc2ccc(C(=O)O)cc2)CC1
- Activity (Rattus norvegicus): Active

Compound: CCN(CC)CCN(C(=O)Nc1ccc(Cl)cc1)c1ccc(C(=O)Nc2ccc(Cl)cc2)cc1C
- inhibition [1]: 67.2%

Compound: Cc1cc(C(=O)Nc2ccc(Cl)cc2)ccc1N(CCN1CCOC[C@@H]1C)C(=O)Nc1ccc(Cl)cc1
- inhibition [1]: 63.1%

Compound: Cc1cc(C(=O)Nc2ccc(Cl)cc2)ccc1N(CCN1CCSCC1)C(=O)Nc1ccc(Cl)cc1
- inhibition [1]: 83.7%

Compound: Cc1cc(C(=O)Nc2ccc(C#N)cc2)ccc1N(CCN1CCOCC1)C(=O)Nc1ccc(Cl)cc1
- inhibition [1]: 64%

Compound: Cc1cc(C(=O)Nc2ccc(Cl)cc2)ccc1NC(=O)Nc1ccc(Cl)cc1
- inhibition [1]: 80.3%

Compound: Cc1cc(C(=O)Nc2ccc(F)cn2)ccc1N(CCN1CCCC1=O)C(=O)Nc1ccc(Cl)cc1
- inhibition [1]: 94.5%
- half-life [2]: 4 min
- half-life [3]: 3.1 min
- half-life [4]: 3.1 min
- half-life [5]: 3.7 min

Compound: Cc1cc(C(=O)Nc2ccc(Cl)cc2)ccc1N(CCN1CCCC1=O)C(=O)Nc1ccc(Cl)cc1
- inhibition [1]: 98.9%
- half-life [2]: 9.5 min
- half-life [3]: 11 min
- half-life [4]: 4.5 min
- half-life [5]: 8.8 min

Compound: Cc1cc(C(=O)Nc2ccc(F)cn2)ccc1N(CCN1CCCC1)C(=O)Nc1ccc(Cl)cc1
- inhibition [1]: 94.8%
- half-life [2]: 27.5 min
- half-life [3]: 33.5 min
- half-life [4]: 16 min
- half-life [5]: 26.2 min

Compound: Cc1cc(C(=O)Nc2cnccn2)ccc1N(CCN1CCOCC1)C(=O)Nc1ccc(Cl)cc1
- inhibition [1]: 62.3%

Compound: Cc1cc(C(=O)Nc2ccc(Cl)cc2)ccc1N(CCN1CCOC[C@H]1C)C(=O)Nc1ccc(Cl)cc1
- inhibition [1]: 67.1%

Compound: Cc1cc(C(=O)Nc2ccc(C(F)(F)F)nc2)ccc1N(CCN1CCOCC1)C(=O)Nc1ccc(Cl)cc1
- inhibition [1]: 87.8%
- half-life [2]: 5.8 min
- half-life [3]: 5.4 min
- half-life [4]: 5.4 min
- half-life [5]: 7.7 min

Compound: Cc1cc(C(=O)Nc2ccc3c(c2)OCO3)ccc1N(CCN1CCCC1)C(=O)Nc1ccc(Cl)cc1
- inhibition [1]: 83.3%

Compound: Cc1cc(C(=O)Nc2nccs2)ccc1N(CCN1CCOCC1)C(=O)Nc1ccc(Cl)cc1
- inhibition [1]: 62.8%

Compound: Cc1cc(C(=O)Nc2ccc3c(c2)OCO3)ccc1N(CCN1CCOCC1)C(=O)Nc1ccc(Cl)cc1
- inhibition [1]: 95.6%
- half-life [2]: 6.9 min
- half-life [3]: 5.2 min
- half-life [5]: 4 min

Compound: Cc1cc(C(=O)Nc2ccc(Cl)cc2)ccc1N(CCN1CCCCC1)C(=O)Nc1ccc(Cl)cc1
- inhibition [1]: 92.5%

Compound: COCCN(C(=O)Nc1ccc(Cl)cc1)c1ccc(C(=O)Nc2ccc(Cl)cc2)cc1C
- inhibition [1]: 70.5%

Compound: Cc1cc(C(=O)Nc2ccc(F)cn2)ccc1N(CCN1CCOCC1)C(=O)Nc1ccc(Cl)cc1
- inhibition [1]: 97.8%

Compound: Cc1cc(C(=O)Nc2ccc3c(c2)OCO3)ccc1N(CCN1CCCC1=O)C(=O)Nc1ccc(Cl)cc1
- inhibition [1]: 92.7%
- half-life [2]: 3.9 min
- half-life [3]: 3.3 min

Compound: Cc1cc(C(N)=O)ccc1N(CCN1CCOCC1)C(=O)Nc1ccc(Cl)cc1
- inhibition [1]: 75.9%

Compound: CC(=O)c1ccc(NC(=O)c2ccc(N(CCN3CCOCC3)C(=O)Nc3ccc(Cl)cc3)c(C)c2)cc1
- inhibition [1]: 84.5%

Compound: Cc1cc(C(=O)Nc2ccc(Cl)cc2)ccc1N(CCN1CCOCC1=O)C(=O)Nc1ccc(Cl)cc1
- inhibition [1]: 93.9%
- half-life [2]: 9.1 min
- half-life [3]: 12.9 min
- half-life [4]: 10.7 min
- half-life [5]: 8.9 min

Compound: Cc1cc(C(=O)Nc2ccc(Cl)cc2)ccc1N(CCN1CC[S+]([O-])CC1)C(=O)Nc1ccc(Cl)cc1
- inhibition [1]: 90.4%

Compound: Cc1cc(C(=O)Nc2ccc(Cl)cc2)ccc1N(CCN1CCCC1)C(=O)Nc1ccc(Cl)cc1
- inhibition [1]: 98.5%
- half-life [2]: 197 min
- half-life [3]: 137 min
- half-life [4]: 27.3 min
- half-life [5]: 35.8 min
- Activity (Rattus norvegicus): Active

Compound: Cc1cc(C(=O)Nc2ccccn2)ccc1N(CCN1CCOCC1)C(=O)Nc1ccc(Cl)cc1
- inhibition [1]: 85.8%

Compound: Cc1cc(C(=O)Nc2ccc(Cl)cc2)ccc1N(CCN1CCS(=O)(=O)CC1)C(=O)Nc1ccc(Cl)cc1
- inhibition [1]: 95.2%
